# In US20030096854A1, “Substituted tricyclics” (priority 2002, published 2003):
# Target: T1, recombinant human secreted phospholipase A2 (Homo sapiens, UniProt P14555)
# T1 sequence (P14555 21-144): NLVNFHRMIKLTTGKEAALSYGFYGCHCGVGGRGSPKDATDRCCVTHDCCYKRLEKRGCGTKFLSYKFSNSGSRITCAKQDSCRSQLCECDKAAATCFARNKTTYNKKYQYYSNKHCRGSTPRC
# Assay: Chromogenic assay for inhibitors of recombinant human secreted phospholipase A2 (Assay Example 1)
# Type: biochemical
# Settings: diheptanoyl thio-PC substrate, pH 7.5, absorbance at 405 nm
# From the text: The following chromogenic assay procedure was used to identify and evaluate inhibitors of recombinant human secreted phospholipase A2. The assay described herein has been adapted for high volume screening using 96 well microtiter plates. A general description of this assay method is found in the article, “Analysis of Human Synovial Fluid Phospholipase A2 on Short Chain Phosphatidylcholine-Mixed Micelles: Development of a Spectrophotometric Assay Suitable for a Microtiterplate Reader”, by Laure J. Reynolds, Lori L. Hughes, and Edward A Dennis, Analytical Biochemistry, 204, pp. 190-197, 1992 (the disclosure of which is incorporated herein by reference):
# Bovine Serum Albumin (fatty acid free) (1 g/L)
# (Sigma A-7030, product of Sigma Chemical Co. St. Louis Mo., USA) […]
# pH 7.5 (adjust with NaOH)
# Adjust pH to 4.5 with acetic acid
# 5,5′-dithiobis-2-nitrobenzoic acid
# Racemic Diheptanoyl Thio—PC racemic 1,2-bis(heptanoylthio)-1,2-dideoxy-sn-glycero-3-phosphorylcholine TRITON X-100™ prepare at 6.249 mg/ml in reaction buffer to equal […]
# TRITON X-100™ is a polyoxy ethylene non-ionic
# A measured volume of racemic dipheptanoyl thio PC supplied in chloroform at a concentration of 100 mg/ml is taken to dryness and redissolved in 10 millimolar TRITON X-100™ nonionic detergent aqueous solution. Reaction Buffer is added to the solution, then DTNB to give the Reaction Mixture.
# The reaction mixture thus obtained contains 1 mM diheptanoly thio-PC substrate, 0.29 mm Triton X-100™ detergent, and 0.12 mm DTMB in a buffered aqueous solution at pH 7.5.
# 1. Add 0.2 ml reaction mixture to all wells;
# 2. Add 10 ul test compound (or solvent blank) to appropriate wells, mix 20 seconds;
# 3. Add 50 nanograms of sPLA2 (10 microliters) to appropriate wells;
# 4. Incubate plate at 40° C. for 30 minutes;
# 5. Read absorbance of wells at 405 nanometers with an automatic plate reader.
# All compounds were tested in triplicate. Typically, compounds were tested at a final concentration of 5 ug/ml. […] Lack of color development at 405 nanometers evidenced inhibition. Compounds initially found to be active were reassayed to confirm their activity and, if sufficiently active, IC50 values were determined. […] In all cases, % inhibition measured at 405 nanometers generated by enzyme reactions containing inhibitors relative to the uninhibited control reactions was determined. Each sample was titrated in triplicate and result values were averaged for plotting and calculation of IC50 values. IC50 were determined by plotting log concentration versus inhibition values in the range from 10-90% inhibition.
IC50 (compounds of formula 3) [nM],IC50 (compounds of formula 4) [nM],Compound,also measured
,118,"NC(=O)c1cccc2c1c1c(OCC(=O)NCC(=O)O)cccc1n2Cc1ccccc1 [Compound 4a, N-[[[5-Carbamoyl-9-(phenylmethyl)carbazol-4-yl]oxy]acetyl]glycine]",
,16.1,"CC(C)C[C@H](NC(=O)COc1cccc2c1c1c(C(N)=O)cccc1n2Cc1ccccc1)C(=O)O [Compound 4c, N-[[[5-Carbamoyl-9-(phenylmethyl)carbazol-4-yl]oxy]acetyl]-L-leucine]",
,99.2,"NC(=O)c1cccc2c1c1c(OCC(=O)N[C@@H](CC(=O)O)C(=O)O)cccc1n2Cc1ccccc1 [Compound 4d, N-[[[5-Carbamoyl-9-(phenylmethyl)carbazol-4-yl]oxy]acetyl]-L-aspartic Acid]",
,61.2,"NC(=O)c1cccc2c1c1c(OCC(=O)N[C@@H](CCC(=O)O)C(=O)O)cccc1n2Cc1ccccc1 [Compound 4e, N-[[[5-Carbamoyl-9-(phenylmethyl)carbazol-4-yl]oxy]acetyl]-L-glutamic Acid]",
,103,"CSCC[C@H](NC(=O)COc1cccc2c1c1c(C(N)=O)cccc1n2Cc1ccccc1)C(=O)O [Compound 4f, N-[[[5-Carbamoyl-9-(phenylmethyl)carbazol-4-yl]oxy]acetyl]-L-methionine]",
,324,"NC(=O)c1cccc2c1c1c(OCC(=O)N[C@@H](Cc3ccccc3)C(=O)O)cccc1n2Cc1ccccc1 [Compound 4g, N-[[[5-Carbamoyl-9-(phenylmethyl)carbazol-4-yl]oxy]acetyl]-L-phenylalanine]",

# Further lines, the molecule ahead of its results:
Compound,IC50 (compounds of formula 3) [nM],IC50 (compounds of formula 4) [nM],also measured
"NC(=O)COc1cccc2c1c1c(C(N)=O)cccc1n2Cc1ccccc1 [Compound 2a, [[5-Carbamoyl-9-(phenylmethyl)carbazol-4-yl]oxy]acetamide]",,,IC50 (compounds of formula 2): 151 nM
"CCNC(=O)COc1cccc2c1c1c(C(N)=O)cccc1n2Cc1ccccc1 [Compound 2b, [[5-Carbamoyl-9-(phenylmethyl)carbazol-4-yl]oxy]-N-(ethyl)acetamide]",,,IC50 (compounds of formula 2): 273 nM
"COC(=O)CNC(=O)COc1cccc2c1c1c(C(N)=O)cccc1n2Cc1ccccc1 [Compound 3a, N-[[[5-Carbamoyl-9-(phenylmethyl)carbazol-4-yl]oxy]acetyl]glycine methyl ester]",383,,
"COC(=O)[C@H](C)NC(=O)COc1cccc2c1c1c(C(N)=O)cccc1n2Cc1ccccc1 [Compound 3b, N-[[[5-Carbamoyl-9-(phenylmethyl)carbazol-4-yl]oxy]acetyl]-L-alanine Methyl Ester]",205,,
"COC(=O)[C@H](CC(C)C)NC(=O)COc1cccc2c1c1c(C(N)=O)cccc1n2Cc1ccccc1 [Compound 3c, N-[[[5-Carbamoyl-9-(phenylmethyl)carbazol-4-yl]oxy]acetyl]-L-leucine Methyl Ester]",67.5,,
"COC(=O)C[C@H](NC(=O)COc1cccc2c1c1c(C(N)=O)cccc1n2Cc1ccccc1)C(=O)OC [Compound 3d, N-[[[5-Carbamoyl-9-(phenylmethyl)carbazol-4-yl]oxy]acetyl]-L-aspartic Acid Dimethyl Ester]",513,,
"COC(=O)CC[C@H](NC(=O)COc1cccc2c1c1c(C(N)=O)cccc1n2Cc1ccccc1)C(=O)OC [Compound 3e, N-[[[5-Carbamoyl-9-(phenylmethyl)carbazol-4-yl]oxy]acetyl]-L-glutamic Acid Dimethyl Ester]",709,,
"COC(=O)[C@H](CCSC)NC(=O)COc1cccc2c1c1c(C(N)=O)cccc1n2Cc1ccccc1 [Compound 3f, N-[[[5-Carbamoyl-9-(phenylmethyl)carbazol-4-yl]oxy]acetyl]-L-methionine Methyl Ester]",263,,
"COC(=O)[C@H](Cc1ccccc1)NC(=O)COc1cccc2c1c1c(C(N)=O)cccc1n2Cc1ccccc1 [Compound 3g, N-[[[5-Carbamoyl-9-(phenylmethyl)carbazol-4-yl]oxy]acetyl]-L-phenylalanine Methyl Ester]",8600,,
